Measured values published in PubChem BioAssay AID1963438 (Molecular Pharmacology Branch, DTP, NCI, 2024).
Values joined by “and” are separate entries in the source; they are usually repeats but may differ in a detail not shown here. Identical values can stand only once.

Test system: NCI-H510 multicellular tumor spheroid growth, % test/control
Test: Anticancer human tumor NCI-H510 cell line growth inhibition [Asc];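 also: spheroids exposed to agents for 7 days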;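 as to viability, T/C: 100% = DMSO vehicle control wells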
Details: for viability, T/C: stronger effect = lower value
Method: Multicellular complex tumor spheroid response to apoptosis pathway targeting inhibitors Alrizomadlin, Pelcitoclax, and Dasminapant in combination with a variety of drugs and investigational agents in selected tumor cell lines
The MDM2 inhibitor alrizomadlin, the Bcl-2/Bcl-xL inhibitor pelcitoclax, and the IAPs inhibitor dasminapant were evaluated both individually and in combination with standard of care and investigational anticancer small molecules within a complex spheroid model of solid tumors. . Complex spheroids include a stromal component modeled by human endothelial cells (HUVEC) and fibroblasts modeled by human mesenchymal stem cells (MSCs). The concentration ranges selected for each drug and investigational agent were based upon clinically achievable concentrations if the clinical Cmax of the agent was known.
Compounds. The drugs and investigational agents: alrizomadlin (APG-115; NSC831270), pelcitoclax (APG-1252; NSC835773), dasminapant (APG-1387;NSC834197), TAK-243 (NSC785004), copanlisib (NSC809693), olaparib (NSC753686), talazoparib (NSC767125), cobimetinib (NSC 768068), eltanexor (KPT-8602, NSC 794443), abemaciclib (NSC 768073), sotorasib (NSC818433), adagrasib (NSC 831453), MRTX-1133 (NSC 836407), Iadademestat (ORY1001, NSC 806812), and RMC-4630 (NSC839698), were obtained from the NCI Developmental Therapeutics Program Chemical Repository. The FDA-approved anticancer drug set is available from the Developmental Therapeutics Program at https://dtp.cancer.gov/organization/dscb/obtaining/available plates.htm. […] The stock solutions were prepared in dimethyl sulfoxide (DMSO, Sigma-Aldrich, St. Louis, MO, cat. D2650) at 800-fold the tested concentration and stored at -70 degrees C prior to their use. All drugs and investigational agents were tested over a range starting from a high concentration at or near the clinical Cmax and decreasing in half-log increments. If the clinical Cmax for an agent had not been determined, the highest concentration tested was 10 microM.
The patient-derived cancer (PDC) cell lines include five colon adenocarcinomas: 186277-243-T-J2-PDC, 616215-338-R-J1-PDC, 439559-082-T-J2-PDC, 463943-066-T-J2-PDC, and 519858-162-T-J1-PDC; three pancreatic carcinomas: 323965-272-R-J2-PDC, 521955-158-R6-J3-PDC, and 521955-158-R2-J5-PDC; two uterine sarcomas: 327498-152-R-J2-PDC and 993429-296-R-J1-PDC; two rhabdomyosarcomas: 755483-174-R-J1-PDC and 772245-204-R-J1-PDC; two soft tissue sarcomas: 126254-015-R-J1-PDC and 494315-158-R-J1-PDC; two malignant fibrous histiocytomas: 317291-083-R-J1-PDC and 596521-263-R-J1-PDC; two breast carcinomas: 171881-019-R-J1-PDC and 885512-296-R-J2-PDC; and one ovarian carcinoma: 6556581-035-R-J-PDC were obtained from the NCI PDMR, (https://pdmr.cancer.gov). The established cell lines HSSY-2 synovial sarcoma (RRID:CVCL 8719), SYO-1 synovial sarcoma (RRID:CVCL_7146), MPNST malignant peripheral neural sheath tumor were obtained from the Sloan Kettering Institute. The following established cell lines were purchased from the American Type Culture Collection (ATCC, Manassas, VA), Sor the received from the NCI repository:, PANC-1 pancreatic carcinoma (CRL-1469, RRID:CVCL_0480), OVCAR-5 ovarian carcinoma (RRID:CVCL_1628), OVCAR-8 ovarian carcinoma (RRID:CVCL_1629), , MCF-7 breast carcinoma (CRL-12584, RRID:CVCL_0031), MDA-MB-231 breast carcinoma (CRL-12532, RRID:CVCL_0062), NCI-H1876 small cell lung carcinoma (CRL-5902, RRID:CVCL_1503), NCI-H510A small cell lung carcinoma (HTB-184, RRID:CVCL_1565), NCI-H1417 (CRL-5869, RRID:CVCL_1469), and NCI-H196 small cell lung carcinoma (CRL-5823, RRID:CVCL_1509). Dr. Peter Houghton (Greehey Children's Cancer Research Institute, University of Texas Health Science Center, San Antonio, TX) provided Rh-18 rhabdomyosarcoma (RRID:CVCL_1659). Pooled donor human umbilical vein endothelial cells (HUVEC, Lonza, cat. CC-2519) and human mesenchymal stem cells (hMSC, Lonza, cat. PT-2501) were purchased from Lonza (Walkersville, MD).
Cell Culture. […]

Question: With `O=C(c1ccc(F)c(F)c1Nc1ccc(I)cc1F)N1CC(O)([C@@H]2CCCCN2)C1` + Cc1c(S(C)(=O)=O)c(-c2cc(F)cc(N3CCN(c4ccc(NS(=O)(=O)c5ccc(NC(CCN6CCC(C(=O)OCCCP(=O)(O)O)CC6)CSc6ccccc6)c(S(=O)(=O)C(F)(F)F)c5)cc4)CC3)c2)c(-c2ccc(Cl)cc2)n1C(C)C as the compound, how does the IC50 (curve of first compound, second compound 0.1 µM) read?
Answer: > 1 µM

Question: What about the IC50 (curve of first compound, second compound 0.316 µM) of the same compound?
Answer: > 1 µM

Question: What about the IC50 (curve of first compound, second compound 1 µM) of the same compound?
Answer: > 1 µM

Question: And the IC50 (curve of first compound, second compound 3.16 µM)?
Answer: > 1 µM

Question: What about the IC50 (curve of first compound, second compound 10 µM) of the same compound?
Answer: > 1 µM

Question: What about the viability, T/C (second compound 0.1 µM, first compound 0.00316 µM) of the same compound?
Answer: 113%

Question: What about the viability, T/C (second compound 0.1 µM, first compound 0.01 µM) of the same compound?
Answer: 107%

Question: What about the viability, T/C (second compound 0.1 µM, first compound 0.0316 µM) of the same compound?
Answer: 115%

Question: What about the viability, T/C (second compound 0.1 µM, first compound 0.1 µM) of the same compound?
Answer: 96.9%

Question: What about the viability, T/C (second compound 0.1 µM, first compound 0.316 µM) of the same compound?
Answer: 90%

Question: What about the viability, T/C (second compound 0.1 µM, first compound 1 µM) of the same compound?
Answer: 87.4%

Question: What about the viability, T/C (second compound 0.316 µM, first compound 0.00316 µM) of the same compound?
Answer: 124%

Question: What about the viability, T/C (second compound 0.316 µM, first compound 0.01 µM) of the same compound?
Answer: 104%

Question: What about the viability, T/C (second compound 0.316 µM, first compound 0.0316 µM) of the same compound?
Answer: 113%

Question: And the viability, T/C (second compound 0.316 µM, first compound 0.1 µM)?
Answer: 88.7%

Question: What about the viability, T/C (second compound 0.316 µM, first compound 0.316 µM) of the same compound?
Answer: 58.7%

Question: And the viability, T/C (second compound 0.316 µM, first compound 1 µM)?
Answer: 83%

Question: What about the viability, T/C (second compound 1 µM, first compound 0.00316 µM) of the same compound?
Answer: 99.7%

Question: And the viability, T/C (second compound 1 µM, first compound 0.01 µM)?
Answer: 115%

Question: And the viability, T/C (second compound 1 µM, first compound 0.0316 µM)?
Answer: 126%

Question: And the viability, T/C (second compound 1 µM, first compound 0.1 µM)?
Answer: 89.8%

Question: And the viability, T/C (second compound 1 µM, first compound 0.316 µM)?
Answer: 86.9%

Question: And the viability, T/C (second compound 1 µM, first compound 1 µM)?
Answer: 91.7%

Question: What about the viability, T/C (second compound 3.16 µM, first compound 0.00316 µM) of the same compound?
Answer: 107%

Question: And the viability, T/C (second compound 3.16 µM, first compound 0.01 µM)?
Answer: 88.1%

Question: And the viability, T/C (second compound 3.16 µM, first compound 0.0316 µM)?
Answer: 108%

Question: What about the viability, T/C (second compound 3.16 µM, first compound 0.1 µM) of the same compound?
Answer: 104%

Question: And the viability, T/C (second compound 3.16 µM, first compound 0.316 µM)?
Answer: 81.3%

Question: What about the viability, T/C (second compound 3.16 µM, first compound 1 µM) of the same compound?
Answer: 81.4%

Question: What about the viability, T/C (second compound 10 µM, first compound 0.00316 µM) of the same compound?
Answer: 74.7%

Question: What about the viability, T/C (second compound 10 µM, first compound 0.01 µM) of the same compound?
Answer: 105%

Question: What about the viability, T/C (second compound 10 µM, first compound 0.0316 µM) of the same compound?
Answer: 96.1%

Question: And the viability, T/C (second compound 10 µM, first compound 0.1 µM)?
Answer: 105%

Question: And the viability, T/C (second compound 10 µM, first compound 0.316 µM)?
Answer: 78.3%

Question: What about the viability, T/C (second compound 10 µM, first compound 1 µM) of the same compound?
Answer: 64.3%

Question: How did the viability, T/C (compound 0.0316 µM) turn out when `O=C(c1cc(Cc2n[nH]c(=O)c3ccccc23)ccc1F)N1CCN(C(=O)C2CC2)CC1` was run?
Answer: 93% and 95.9% and 99.4%

Question: What about the viability, T/C (compound 0.1 µM) of the same compound?
Answer: 101% and 80.6% and 86.1%

Question: What about the viability, T/C (compound 0.316 µM) of the same compound?
Answer: 69.5% and 59% and 83.9%

Question: What about the viability, T/C (compound 1 µM) of the same compound?
Answer: 60% and 90.4% and 76.8%

Question: What about the viability, T/C (compound 3.16 µM) of the same compound?
Answer: 29% and 43.1% and 88%

Question: And the IC50 (curve of compound)?
Answer: 1.3 µM and 2.57 µM and > 10 µM

Question: For `C#Cc1c(F)ccc2cc(O)cc(-c3ncc4c(N5CC6CCC(C5)N6)nc(OCC56CCCN5CC(F)C6)nc4c3F)c12` (stereo not drawn), which viability, T/C (compound 0.0316 µM) is on record?
Answer: 111% and 93.4% and 94.4%

Question: And the viability, T/C (compound 0.1 µM)?
Answer: 104% and 103% and 112%

Question: And the viability, T/C (compound 0.316 µM)?
Answer: 99.3% and 99.1% and 92.8%

Question: What about the viability, T/C (compound 1 µM) of the same compound?
Answer: 94.8% and 105% and 84.2%

Question: What about the viability, T/C (compound 3.16 µM) of the same compound?
Answer: 106% and 112% and 123%

Question: What about the viability, T/C (compound 10 µM) of the same compound?
Answer: 99.8% and 88.4% and 92.8%

Question: What about the IC50 (curve of compound) of the same compound?
Answer: > 10 µM
